These results are taken from ChEMBL document CHEMBL4834465, “Potent SARS-CoV-2 mRNA Cap Methyltransferase Inhibitors by Bioisosteric Replacement of Methionine in SAM Cosubstrate” (ACS Med Chem Lett, 2021).

Structures are written as SMILES. Where only a bound is given, the exact number is not on record here.

Data set [1] concerns the target T1, Glycine N-methyltransferase (Homo sapiens, UniProt Q14749).
T1 sequence (Q14749 whole entry): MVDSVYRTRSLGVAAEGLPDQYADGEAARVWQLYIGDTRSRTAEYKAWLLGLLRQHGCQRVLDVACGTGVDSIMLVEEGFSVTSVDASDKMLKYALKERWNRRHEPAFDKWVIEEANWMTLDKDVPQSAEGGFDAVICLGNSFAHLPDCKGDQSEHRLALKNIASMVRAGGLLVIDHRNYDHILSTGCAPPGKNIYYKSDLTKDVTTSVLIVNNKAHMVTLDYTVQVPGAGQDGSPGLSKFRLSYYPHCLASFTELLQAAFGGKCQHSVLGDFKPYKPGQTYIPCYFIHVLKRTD
Description: Inhibition of N-terminal His-tagged human recombinant Glycine-N-methyltransferase (1 to 295 residues) expressed in Escherichia coli using glycine and SAM as substrate incubated for 30 mins by HTRF assay. In general terms: TR-FRET usually uses a lanthanide donor and a delayed reading to cut background.

Data set [2] concerns A549. As to conditions: human, a549, 48 h; call rule not given here.
In data set [3] the test system is HepG2. The following applies: human, hepg2, 48 h.
For data set [4] the following is noted: mouse, balb/3t3 clone a31, 48 h.

In general, IC50 refers to the midpoint of a concentration-inhibition curve. For the compound `Nc1ncnc2c1ncn2[C@@H]1O[C@H](CSCc2cc(O)[nH]n2)[C@@H](O)[C@H]1O`, the IC50 in data set [1] (read-out: IC50) came to 640 nM. The results for the CC50 in data set [2], in data set [3] and in data set [4] were > 200 µM, > 100 µM and > 200 µM, respectively.
`Nc1ncnc2c1ncn2[C@@H]1O[C@H](CSCc2ccc3ccccc3c2)[C@@H](O)[C@H]1O`: the IC50 in data set [1] (read-out: IC50) came out at 260 nM. For the same compound, the CC50 in data set [2] was > 200 µM; in data set [3], > 100 µM; in data set [4], > 200 µM.
As for `Nc1ncnc2c1ncn2[C@@H]1O[C@H](C[C@@H](N)CC[C@H](N)C(=O)O)[C@@H](O)[C@H]1O` [SINEFUNGIN], the values for the CC50 in data set [2], in data set [3] and in data set [4] were 72.9 µM, > 100 µM and 99.2 µM, respectively.
Consider `Nc1ncnc2c1ncn2[C@@H]1O[C@H](CSc2cccc(C(=O)O)c2)[C@@H](O)[C@H]1O`, for which the IC50 in data set [1] (read-out: IC50) came out at 150 nM. Further, the CC50 in data set [2] is > 200 µM; in data set [3], > 100 µM; in data set [4] it was > 200 µM.
As for `Nc1ncnc2c1ncn2[C@@H]1O[C@H](CSCCc2c[nH]nn2)[C@@H](O)[C@H]1O`, in data set [1] (read-out: IC50), the IC50 worked out at 390 nM. In addition, the figures for the CC50 in data set [2], in data set [3] and in data set [4] were > 200 µM, > 100 µM and > 200 µM, respectively.
Turning to `Nc1ncnc2c1ncn2[C@@H]1O[C@H](CNCCc2ccccc2)[C@@H](O)[C@H]1O`, the IC50 in data set [1] (read-out: IC50) was 207000 nM.
In the case of `Nc1ncnc2c1ncn2[C@@H]1O[C@H](C(=O)N2CCN(CC(=O)O)CC2)[C@@H](O)[C@H]1O`, in data set [1] (read-out: IC50), the IC50 is 240000 nM.
For `Nc1ncnc2c1ncn2[C@@H]1O[C@H](C(=O)Nc2cccc(C(=O)O)c2)[C@@H](O)[C@H]1O`, the IC50 in data set [1] (read-out: IC50) stood at 2200 nM. For the same compound, the CC50 in data set [2] was > 200 µM; in data set [3] it was > 100 µM; in data set [4], > 200 µM.
Take `Nc1ncnc2c1ncn2[C@@H]1O[C@H](CN(CCCC(=O)O)CCc2ccccc2)[C@@H](O)[C@H]1O`: in data set [1] (read-out: IC50), the IC50 amounted to 2700 nM. In addition, the values for the CC50 in data set [2], in data set [3] and in data set [4] were > 200 µM, > 100 µM and > 200 µM, respectively.
Consider `Nc1ncnc2c1ncn2[C@@H]1O[C@H](CSCc2cccc(C(=O)O)c2)[C@@H](O)[C@H]1O`, for which the IC50 in data set [1] (read-out: IC50) is 8.6 nM. In addition, the CC50 in data set [2] was > 200 µM; in data set [3], > 100 µM; in data set [4], > 200 µM.
For the compound `Nc1ncnc2c1ncn2[C@@H]1O[C@H](CNCc2cc[nH]n2)[C@@H](O)[C@H]1O`, the IC50 result in data set [1] is on record as “Not Active”.
